Measured values from patent US8334315B2, “Substituted aromatic carboxamide and urea derivatives as vanilloid receptor ligands” (Gruenenthal GmbH, priority 2009, dated 2012).

Assays:
[1] = target: T1, hVR1 (Homo sapiens, UniProt Q8NER1); assay: Functional test on human VR1, 45° C. stimulus; format: cell-based, human being; details: for IC50: read-out: IC50 (human being) [nM], 45° C.
T1 construct: expressed in transfected cells; host or cells: CHO K1 cells (ECACC), stably transfected

[2] = target: T1, hVR1; assay: Functional test on VR1, FLIPR Ca2+ influx in transfected CHO K1 cells, capsaicin; format: cell-based, human being; set-up: key to Ki (human being) [nM] Cap: agonist / partial agonist / no effect: AG=agonist; pAG=partial agonist; NE=no effect; details: for Ki: capsaicin (Cap), includes values given in brackets after pAG, read-out: Ki (human being) [nM] Cap
Text: In the process, the Ca^2+ influx is quantified in the FLIPR assay with the aid of a Ca^2+-sensitive dye (type Fluo-4, Molecular Probes Europe BV, Leiden, the Netherlands) in a fluorescent imaging plate reader (FLIPR, Molecular Devices, Sunnyvale, USA), as described hereinafter.
II. Functional Tests Carried Out on the Vanilloid Receptor (VR1)
The agonistic or antagonistic effect of the substances to be tested on the vanilloid receptor 1 (VR1) can also be determined using the following assay. In this assay, the influx of Ca^2+ through the channel is quantified with the aid of a Ca^2+-sensitive dye (type Fluo-4, Molecular Probes Europe BV, Leiden, the Netherlands) in a fluorescent imaging plate reader (FLIPR, Molecular Devices, Sunnyvale, USA).
Chinese hamster ovary cells (CHO K1 cells, European Collection of Cell Cultures (ECACC) United Kingdom) are stably transfected with the VR1 gene. For functional testing, these cells are plated out on poly-D-lysine-coated black 96-well plates having a clear base (BD Biosciences, Heidelberg, Germany) at a density of 25,000 cells/well. The cells are incubated overnight at 37° C. and 5% CO2 in a culture medium (Ham's F12 nutrient mixture, 10% by volume of FCS (foetal calf serum), 18 μg/ml of L-proline). The next day the cells are incubated with Fluo-4 (Fluo-4 2 μM, 0.01% by volume of Pluronic F127, Molecular Probes in HBSS (Hank's buffered saline solution), Gibco Invitrogen GmbH, Karlsruhe, Germany) for 30 minutes at 37° C. Subsequently, the plates are washed three times with HBSS buffer and after further incubation for 15 minutes at RT used for Ca^2+ measurement in a FLIPR assay. The Ca^2+-dependent fluorescence is measured before and after the addition of the substances to be tested (λex wavelength=488 nm, λem=540 nm). Quantification is carried out by measuring the highest fluorescence intensity (FC, fluorescence counts) over time.
The FLIPR protocol consists of 2 substance additions. First the compounds to be tested (10 μM) are pipetted onto the cells and the Ca^2+ influx is compared with the control (capsaicin 10 μM) (% activation based on the Ca^2+ signal after the addition of 10 μM of capsaicin). After 5 minutes' incubation, 100 nM of capsaicin are applied and the Ca^2+ influx is also determined.
Desensitising agonists and antagonists led to suppression of the Ca^2+ influx. The % inhibition is calculated compared to the maximum achievable inhibition with 10 μM of capsaicin.
Starting from the percentage displacement caused by different concentrations of the compounds to be tested of general formula I, IC50 inhibitory concentrations which cause a 50-per cent displacement of capsaicin were calculated. Ki values for the test substances were obtained by conversion by means of the Cheng-Prusoff equation (Cheng, Prusoff; Biochem. Pharmacol. 22, 3099-3108, 1973).
The affinity of the compounds according to the invention for the vanilloid receptor 1 (VR1/TRPV1 receptor) was determined as described hereinbefore (pharmacological methods I and II respectively).

[3] = read-out: IC50 (human being), 45° C.: inhibition (as a percentage)

T1 sequence (Q8NER1 whole entry): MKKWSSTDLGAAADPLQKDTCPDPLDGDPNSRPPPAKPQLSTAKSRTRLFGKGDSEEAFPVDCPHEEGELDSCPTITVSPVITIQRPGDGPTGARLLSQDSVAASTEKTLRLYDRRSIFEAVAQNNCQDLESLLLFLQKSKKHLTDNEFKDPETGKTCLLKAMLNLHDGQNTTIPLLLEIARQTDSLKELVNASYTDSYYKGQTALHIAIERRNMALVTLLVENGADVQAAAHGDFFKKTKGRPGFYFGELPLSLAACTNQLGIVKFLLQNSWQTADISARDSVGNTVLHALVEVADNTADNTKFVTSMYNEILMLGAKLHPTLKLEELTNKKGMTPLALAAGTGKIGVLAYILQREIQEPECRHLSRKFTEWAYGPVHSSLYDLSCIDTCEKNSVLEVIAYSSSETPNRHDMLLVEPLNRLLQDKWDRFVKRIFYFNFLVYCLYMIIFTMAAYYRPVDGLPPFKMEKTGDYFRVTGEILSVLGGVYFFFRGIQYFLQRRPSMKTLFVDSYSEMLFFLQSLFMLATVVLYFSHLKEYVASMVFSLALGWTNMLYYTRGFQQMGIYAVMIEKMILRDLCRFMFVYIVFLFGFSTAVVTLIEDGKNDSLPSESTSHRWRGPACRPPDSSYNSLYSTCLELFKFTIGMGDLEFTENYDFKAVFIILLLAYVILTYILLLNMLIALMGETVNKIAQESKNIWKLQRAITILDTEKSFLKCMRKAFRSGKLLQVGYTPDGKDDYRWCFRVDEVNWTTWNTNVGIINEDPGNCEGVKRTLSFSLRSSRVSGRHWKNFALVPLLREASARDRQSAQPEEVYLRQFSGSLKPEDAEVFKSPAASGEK

| SMILES | Ki [2] [nM] | also measured |
| --- | --- | --- |
| COc1ccc2cccc(C(C)C(=O)NCc3cc(C(F)(F)F)nn3-c3cccc(Cl)c3)c2c1 (centres unmarked) [Example 212, N-((1-(3-chlorophenyl)-3-(trifluoromethyl)-1H-pyrazol-5-yl)methyl)-2-(7-methoxynaphthalen-1-yl)propanamide] | 8.3 | IC50 [1]: 626 nM |
| CC(C(=O)NCc1cc(C(F)(F)F)nn1-c1cccc(Cl)c1)c1cccc2cc(F)ccc12 (centres unmarked) [Example 211, N-((1-(3-chlorophenyl)-3-(trifluoromethyl)-1H-pyrazol-5-yl)methyl)-2-(6-fluornaphthalen-1-yl)propanamide] |  | IC50 [1]: 154 nM |
| CC(C(=O)NCc1cc(C(F)(F)F)nn1-c1cccc(Cl)c1)c1cccc2cnc(Cl)cc12 (centres unmarked) [Example 213, 2-(3-chloroisoquinolin-5-yl)-N-((1-(3-chlorophenyl)-3-(trifluoromethyl)-1H-pyrazol-5-yl)methyl)propanamide] | 0.07 | IC50 [1]: 264 nM |
| CC(C(=O)NCc1cc(C(F)(F)F)nn1-c1cccc(Cl)c1)c1cccc2c1CCC2O (centres unmarked) [Example 207, N-((1-(3-chlorophenyl)-3-(trifluoromethyl)-1H-pyrazol-5-yl)methyl)-2-(1-hydroxy-2,3-dihydro-1H-inden-4-yl)propanamide] | 2.4 | inhibition at 10 µM ([1]; @ 10 μM, read-out: IC50 (human being), 45° C.: inhibition (as a percentage)): 14% |
| CC(C(=O)NCc1cc(C(F)(F)F)nn1-c1cccc(Cl)c1)c1ccc2ncsc2c1 (centres unmarked) [Example 42, 2-(benzo[d]thiazol-6-yl)-N-((1-(3-chlorophenyl)-3-(trifluoromethyl)-1H-pyrazol-5-yl)methyl)propanamide] | 4 |  |
| O=C(NCc1cc(C(F)(F)F)nn1-c1ccc(C(F)(F)F)cc1)Nc1ccc2c(c1)CCC2 [Example 179, 1-(2,3-dihydro-1H-inden-5-yl)-3-((3-(trifluoromethyl)-1-(4-(trifluoromethyl)phenyl)-1H-pyrazol-5-yl)methyl)urea] | 36.3 |  |
| CC(C)(C)c1cc(CNC(=O)Nc2ccc3c(c2)OC(F)(F)O3)n(-c2cccc(Cl)c2)n1 [Example 187, 1-((3-tert-butyl-1-(3-chlorophenyl)-1H-pyrazol-5-yl)methyl)-3-(2,2-difluorobenzo[d][1,3]dioxol-5-yl)urea] |  | Ki (human being) [nM] Cap: agonist / partial agonist / no effect [2]: AG |
| CC(C)(C)c1cc(CNC(=O)Nc2cc(F)cc3[nH]ncc23)n(-c2ccccn2)n1 [Example 216, 1-((3-tert-butyl-1-(pyridin-2-yl)-1H-pyrazol-5-yl)methyl)-3-(6-fluoro-1H-indazol-4-yl)urea] | 54 | IC50 [1]: 2120 nM |
| CC(C(=O)NCc1cc(C(F)(F)F)nn1-c1cccc(Cl)c1)c1cccc2cn[nH]c12 (centres unmarked) [Example 210, N-((1-(3-chlorophenyl)-3-(trifluoromethyl)-1H-pyrazol-5-yl)methyl)-2-(1H-indazol-7-yl)propanamide] | 8.1 |  |
| CC(C)(C)c1cc(CNC(=O)Nc2cccc3c2OCC3)n(-c2cccc(Cl)c2)n1 [Example 185, 1-((3-tert-butyl-1-(3-chlorophenyl)-1H-pyrazol-5-yl)methyl)-3-(2,3-dihydrobenzofuran-7-yl)urea] | 39.7 | Ki (human being) [nM] Cap: agonist / partial agonist / no effect [2]: pAG |
| CC(C(=O)NCc1cc(C(F)(F)F)nn1-c1cccc(Cl)c1)c1ccc2c(cnn2S(C)(=O)=O)c1 (centres unmarked) [Example 191, N-((1-(3-chlorophenyl)-3-(trifluoromethyl)-1H-pyrazol-5-yl)methyl)-2-(1-(methylsulfonyl)-1H-indazol-5-yl)propanamide] | 0.6 | Ki (human being) [nM] Cap: agonist / partial agonist / no effect [2]: pAG |
| CC(C(=O)NCc1cc(C(F)(F)F)nn1-c1cccc(Cl)c1)c1ccc2cccnc2c1 (centres unmarked) [Example 72, N-((1-(3-chlorophenyl)-3-(trifluoromethyl)-1H-pyrazol-5-yl)methyl)-2-(quinolin-7-yl)propanamide] | 0.5 |  |
| O=C(NCc1cc(C(F)(F)F)nn1-c1cccc(Cl)c1)Nc1cccc2c(=O)[nH]ccc12 [Example 196, 1-((1-(3-chlorophenyl)-3-(trifluoromethyl)-1H-pyrazol-5-yl)methyl)-3-(1-oxo-1,2-dihydroisoquinolin-5-yl)urea] |  | Ki (human being) [nM] Cap: agonist / partial agonist / no effect [2]: AG |
| Cc1c(C(F)(F)F)nn(-c2cccc(Cl)c2)c1CNC(=O)C(C)c1ccc2c(c1)OCCO2 (centres unmarked) [Example 200, N-((1-(3-chlorophenyl)-4-methyl-3-(trifluoromethyl)-1H-pyrazol-5-yl)methyl)-2-(2,3-dihydrobenzo[b][1,4]dioxin-6-yl)propanamide] | 17.1 |  |
| CC(C(=O)NCc1cc(C(F)(F)F)nn1-c1cccc(Cl)c1)c1ccc(F)c2[nH]ncc12 (centres unmarked) [Example 195, N-((1-(3-chlorophenyl)-3-(trifluoromethyl)-1H-pyrazol-5-yl)methyl)-2-(7-fluoro-1H-indazol-4-yl)propanamide] | 6.8 |  |
| CC(C(=O)NCc1cc(C(F)(F)F)nn1-c1cccc(Cl)c1)c1cccc2c1ccc[n+]2[O-] (centres unmarked) [Example 198, 5-(1-((1-(3-chlorophenyl)-3-(trifluoromethyl)-1H-pyrazol-5-yl)methylamino)-1-oxopropan-2-yl)quinolin 1-oxide] |  | Ki (human being) [nM] Cap: agonist / partial agonist / no effect [2]: AG |

Second part, led by results:

| Ki [2] [nM] | SMILES | also measured |
| --- | --- | --- |
| 4.9 | O=C(NCc1cc(C(F)(F)F)nn1-c1cccc(Cl)c1)Nc1ccc2scnc2c1 [Example 97, 1-(benzo[d]thiazol-5-yl)-3-((1-(3-chlorophenyl)-3-(trifluoromethyl)-1H-pyrazol-5-yl)methyl)urea] | IC50 [1]: 396 nM |
| 4 | CC(C(=O)NCc1cc(C(F)(F)F)nn1-c1cccc(Cl)c1)c1cccc2c1CC=C2 (centres unmarked) [Example 24, N-((1-(3-chlorophenyl)-3-(trifluoromethyl)-1H-pyrazol-5-yl)methyl)-2-(1H-inden-7-yl)propanamide] | IC50 [1]: 686 nM |
| 0.4 | O=C(NCc1cc(C(F)(F)F)nn1-c1cccc(Cl)c1)Nc1cccc2cnccc12 [Example 110, 1-((1-(3-chlorophenyl)-3-(trifluoromethyl)-1H-pyrazol-5-yl)methyl)-3-(isoquinolin-5-yl)urea] | IC50 [1]: 110 nM |
| 0.2 | O=C(NCc1cc(C(F)(F)F)nn1-c1cccc(Cl)c1)Nc1cccc2ccc(O)cc12 [Example 102, 1-((1-(3-chlorophenyl)-3-(trifluoromethyl)-1H-pyrazol-5-yl)methyl)-3-(7-hydroxynaphthalen-1-yl)urea] | inhibition at 2.5 µM [1, 3]: 48% |
| 0.8 | O=C(NCc1cc(C(F)(F)F)nn1-c1cccc(Cl)c1)Nc1c(Cl)ccc2[nH]ncc12 [Example 205, 1-(5-chloro-1H-indazol-4-yl)-3-((1-(3-chlorophenyl)-3-(trifluoromethyl)-1H-pyrazol-5-yl)methyl)urea] |  |
| 0.5 | CC(C)(C)c1cc(CNC(=O)Nc2cccc3ccc(O)cc23)n(-c2cccc(Cl)c2)n1 [Example 101, 1-((3-tert-butyl-1-(3-chlorophenyl)-1H-pyrazol-5-yl)methyl)-3-(7-hydroxynaphthalen-1-yl)urea] | inhibition at 2.5 µM [1, 3]: 46% |
| 10.8 | Cc1cc2c(NC(=O)NCc3cc(C(F)(F)F)nn3-c3cccc(Cl)c3)cccc2[nH]1 [Example 192, 1-((1-(3-chlorophenyl)-3-(trifluoromethyl)-1H-pyrazol-5-yl)methyl)-3-(2-methyl-1H-indol-4-yl)urea] |  |
| 21.5 | CC(C(=O)NCc1cc(C(F)(F)F)nn1-c1cccc(Cl)c1)c1cccc2c1ccn2C (centres unmarked) [Example 26, N-((1-(3-chlorophenyl)-3-(trifluoromethyl)-1H-pyrazol-5-yl)methyl)-2-(1-methyl-1H-indol-4-yl)propanamide] |  |
